# Experimental data taken from patent US20250361221A1, “SOLID STATE FORMS OF PALTUSOTINE AND PROCESS FOR PREPARATION THEREOF” (ASSIA CHEMICAL INDUSTRIES LTD., priority 2022, published 2025).
# Experiments:
# Assay type in all cases: physicochemical
# [1] = Storage stability at different relative humidities and temperatures, 6 months (XRPD); conditions: for XRPD analysis results: 6 months
# Experimental: (§1) X-ray diffraction was performed on X-Ray powder diffractometer: Bruker D8 Advance; CuKα radiation (λ=1.5418 Å); Lynx eye detector; laboratory temperature 22-25° C.; PMMA specimen holder ring with silicon low background. Prior to analysis, the samples were gently ground by means of mortar and pestle in order to obtain a fine powder. The ground sample was adjusted into a cavity of the sample holder and the surface of the sample was smoothed by means of a cover glass.
# (§2) • Scan range: 2-40 degrees 2-theta; • Scan mode: continuous; • Step size: 0.05 degrees; • Time per step: 0.5 s; • Sample spin: 30 rpm; • Sample holder: PMMA specimen holder ring with silicon low background.
# Samples of Paltusotine form PL1 was subjected to conditions of different relative humidities at different temperatures. XRPD analysis was performed on the samples after 6 months.
# [2] = Thermal stability: heating up to 100° C. for 30 minutes (XRPD); conditions: Heating 100° C.
# Experimental: as §1, §2
# Samples of Paltusotine forms PL1 and PL11 were subjected to heating up to 100° C. for 30 minutes. XRPD analysis of the sample confirmed no change in the starting material (Table 4): […]
# [3] = Stability to compression: pressure of 2 tons in a hydraulic press (XRPD); conditions: 2 tons/1 minute
# Experimental: as §1, §2
# Samples of Paltusotine forms PL1 and PL11 were subjected to a pressure of 2 tons in a hydraulic press (Atlas® Autopress hydraulic press, set to 2 tons). XRPD analysis was performed on the samples after 1 minute.
# [4] = Grinding experiments: strong grinding and solvent drop grinding (XRPD); conditions: 2 minutes
# Experimental: as §1, §2
# Samples of Paltusotine forms PL1 and PL11 were subjected to strong grinding, and to solvent drop grinding in water, ethanol and isopropanol. Grinding was carried out on the samples alone, or in the presence of ethanol or water. In these experiments, about 20 mg of the sample is placed in a mortar and ground with a pestle for 2 minutes. The solvent, when used, as added to the crystalline material before grinding, in a volume of 10 microlitres. XRPD analysis performed on each of the samples after the grinding experiment, confirmed no change in the starting material (Table 3): […]
smiles,measurement,setting,value
"N#Cc1cccc(-c2ccc3ncc(-c4cc(F)cc(F)c4)c(N4CCC(N)CC4)c3c2)c1O [Form PL1, Paltusotine]",XRPD analysis results,"[1]; 25° C., 60% RH",No change
same,time stable after exposure to high and low relative humidity at different temperatures,[1]; 25° C./60% RH and 40° C./75% RH,at least 6 months
same,XRPD analysis results,"[1]; 40° C., 75% RH",No change
same,Result (XRPD analysis),[2],Stable
same,Result (XRPD analysis),[3],Stable
same,XRPD analysis results,"[4]; Solvent-drop grinding (ethanol), 10 microlitres",No change
same,XRPD analysis results,"[4]; Solvent-drop grinding (isopropanol), 10 microlitres",No change
same,XRPD analysis results,"[4]; Solvent-drop grinding (water), 10 microlitres",No change
same,XRPD analysis results,"[4]; Strong grinding, mortar and pestle",No change
